Where two headings read alike, the source gives them in different places.
Key:
[1] = test system: HT-29 human colon cancer cells; settings: MTT, Figure S14E
Protocol: Cells were maintained at 37 °C in a humidified atmosphere containing 5% CO2.

HCT 116 cells = assay: Trypan blue exclusion test; assay type: cell-based, human; settings: HCT 116, 0.5 μM, 2 days
Protocol: HCT 116 cells were harvested by trypsinization followed by centrifugation at 500g for 5 min. The cell pellet was resuspended in 1 mL of PBS. Equal volumes of trypan blue (Bio-Rad cat. no. 1450021) 0.4% and cell suspension were mixed and incubated for 1–3 min at room temperature, and cell counting was carried out using a TC20 Automated Cell Counter (Bio-Rad cat. no. 1450102). The percentage of viable cells was calculated by dividing the number of viable cells per milliliter by the number total of cells per milliliter) × 100. Representative images were acquired using a Zeis light microscope with a 20× objective.

[2] = Stability in DMEM by 195Pt NMR; assay type: physicochemical; settings: DMSO-d6/DMEM 1:4, 37 °C, 0, 24, 48, 120 h
Text: We then decided to evaluate the stability of the two Pt(IV) complexes in the medium (DMEM) used to carry out the in vitro experiments, monitoring their kinetics by ^195Pt NMR at different times to evaluate the possible species formed over time. DMEM is supplemented with proteins and other molecules essential for cell growth (Experimental Section). Thus, similar to the reduction assays, we analyzed the Pt(II)/Pt(IV) region where the expected species appear. […] Both Pt(IV)/Pt(II) signals disappeared after 48 h, most likely again because of the binding of the complex to the proteins.
To each solution was then slowly and carefully added 300 μL of DMEM to avoid the precipitation of the complex, reaching a final concentration of 1:4 (DMSO-d6/DMEM). All these mixtures were performed using a thermoshaker. Each sample was monitored by ^195Pt NMR at 0, 24, 48, and 120 h.

[3] = test system: HCT 116 colon carcinoma subcutaneous tumors; assay: Subcutaneous HCT 116 tumor model in nude mice; assay type: in vivo, athymic nude Foxn1nu mice
Text: Tumor growth was monitored until tumors in the control group reached the ethically allowed size. […] On the other hand, many types of cancer cause a general increase in lactate dehydrogenase (LDH), and it is considered a nonspecific tumor marker.[57]
(§1) To establish the subcutaneous tumor, 2 × 10^6 HCT 116 colon carcinoma cells were resuspended 1:1 in culture media and Matrigel (BD) and injected subcutaneously. Six to eight week old female athymic nude Foxn1nu mice (Harlan Iberica) were used for each point. […] Two therapeutic approaches were compared: acute and chronic (see diagram in Figure 5). Acute treatment was performed (three injections of 10 mg/kg); chronic treatment relied on injections of 1 mg/kg every 3–4 days. […] Tumor growth was monitored by personnel unaware of the group distribution. Experiments were finalized when control animals achieved the maximum tumor size approved by the Ethical Committee. Animals were sacrificed by euthanasia by CO2 inhalation. Selected organs were collected from each animal for histopathological analysis. Samples were fixed in 4% paraformaldehyde for 2 h followed by cold 70% ethanol. Plasma serum was collected to determine hepatic and renal toxicity of treatments using a SPIN200E automatic bioanalyzer (Spinreact).

[4] = 195Pt NMR reduction kinetics with glutathione; assay type: physicochemical; settings: GSH 4:1 excess, DMSO/D2O (4:1), 37 °C, 2, 6, 24 h
Protocol: AsA presents an intracellular concentration of 1 mM, whereas the GSH concentration is 2 mM.[38] This reactivity was monitored by ^195Pt NMR at different times. Thus, by analyzing the different regions where the signals of Pt(II)/Pt(IV) species appear, it is possible to identify and assign the different compounds formed during the reaction. In most cases, the regions where the Pt(II) and Pt(IV) signals appear are separated by more than 3000 ppm.[33]
The reactivity of both complexes toward the reducing agent GSH was also studied using the DMSO/D2O (4:1) mixture. […] In the Pt(II) region, two signals appeared after 24 h at −2728 and −3405 ppm (Figure 2G). The first value is consistent with the cis-PtN2SX fraction,[41],[42] meaning that this species, once reduced to its Pt(II) homologue, coordinates with GSH by displacing a chloride ligand. The second signal corresponds to another Pt(II) moiety with more than one ligand containing sulfur atoms. […]
Each solution was then slowly added to 100 μL of a solution of the corresponding reducing agent (AsA or GSH in an excess of 4:1 against each complex) in D2O at 37 °C. […] Each sample was monitored by ^195Pt NMR at 2, 6, and 24 h.

[5] = test system: HCT 116 human colon cancer cells; assay: MTT cell viability assay, HCT 116; assay type: cell-based; settings: for IC50: 48 h
Protocol: (§2) HIEC6 human healthy intestinal cells and HCT 116 and HT-29 human colon cancer cells were supplied by ATCC. Colon cancer cells were cultured in Dulbecco’s modified Eagle’s medium (DMEM) for HCT 116 and HT-29 supplemented with fetal bovine serum (10%). HIEC6 cells were cultured in Opti-MEM supplemented with fetal bovine serum (4%), HEPES (20 mM), glutamine (10 mM), and epidermal growth factor (10 ng/mL). Cells were maintained at 37 °C in a humidified atmosphere containing 5% CO2. Cells were seeded at 30% confluence in DMEM for HCT 116 and in Opti-MEM for HIEC6; after cell adhesion, HIEC6 cells were cultured in DMEM for 24h before being treated. All cells were treated with the indicated components at concentrations of 0.25–50 μM and incubated for 1–5 days as specified.
(§3) The MTT assay relies on a colorimetric reaction based on the capacity of living cells to reduce MTT to formazan and change the color to purple, which is easily measured by colorimetry. This assay estimates the cellular viability after the indicated treatments. Cells were treated with MTT (1:10 in culture medium) and incubated at 37 °C for 3 h for HCT 116 and HT-29 or 6 h for HIEC6. After removal of the medium, the formazan was resuspended in DMSO, transferred to p96 plates, and analyzed by a SpectraFLUOR (Tecan) at 542 nm. In all cases, viability was measured in duplicates of each point in three independent experiments.

[6] = test system: HIEC6 human healthy intestinal cells; assay: MTT cell viability assay, HIEC6; assay type: cell-based; settings: for IC50: 48 h
Protocol: as §2, §3

[7] = In vivo toxicity and tolerance in tumor-bearing mice; design: species or system athymic nude Foxn1nu mice
Text: The in vitro results encouraged us to explore the translational potential in a preclinical in vivo model of nude mice with grafted tumor cells. […] Tumor growth was monitored until tumors in the control group reached the ethically allowed size. […] On the other hand, many types of cancer cause a general increase in lactate dehydrogenase (LDH), and it is considered a nonspecific tumor marker.[57] Both treatments reduced LDH levels compared to those of untreated animals (PBS), reflecting the response to treatment.
as §1

[8] = MTT, 5 uM, 2 days, (final complexes, Figure 3B)
[9] = MTT, second (last) column of this head
[10] = mice after treatment, versus cisplatin

CC(C)N.CC(C)N.CCO[Si](CCCNC(=O)[O][Pt]([Cl])([Cl])[O]C(=O)NCCC[Si](OCC)(OCC)OCC)(OCC)OCC [Pt(IV)-biSi-2, cis-Dichloro(diisopropylamine)-trans-[3-(triethoxysilyl)propylcarbamate]platinum(IV)]
Cytotoxic effect on colon cancer cells (HT-29) [1]: strong cytotoxic effect
Reduction of viability by trypan blue staining (HCT 116 cells): approximately 60%
Stability in DMEM (Pt(IV) signal in 195Pt NMR) [2]: suffered a marked decrease after 24 h
Tumor volume versus control (PBS) ([3]; i.p., acute and chronic treatments): significantly reduced tumor volume
Tumor growth compared with cisplatin ([3]; i.p., acute and chronic treatments, Pt concentration one-third that of cisplatin): reduced tumor growth more than cisplatin
LDH levels (tumor marker) ([3]; serum, versus cisplatin treatment): reduced LDH levels significantly more
Reduction of the Pt(IV) complex by GSH (Pt(IV) signal in 195Pt NMR) [4]: practically disappeared after 24 h
Fold greater cytotoxicity than cisplatin, HCT 116 ([5]; 5 μM, 5 days chronic treatment): 8–10 fold
Cell viability, HCT 116 0.5uM 2 days ([5]; MTT, 0.5 uM, 2 days): 49.4 ± 3.2%
Reduction of viability (cytotoxicity) of HCT 116 tumor cells ([5]; MTT, 0.5 μM, 2 days): 50%
Cell viability, HCT 116 0.5uM 5 days ([5]; MTT, 0.5 uM, 5 days): 60.2 ± 14.4%
Reduction of tumor cell viability (HCT 116) ([5]; MTT, 0.5 μM, 5 days): 40%
Reduction in viability of cancer cells (HCT 116) ([5]; MTT, 5 μM, 2 days): 90%
Cell viability, HCT 116 5uM 2 days [5, 8]: 4.4 ± 0.8%
Cells survived, HCT 116 ([5]; MTT, 5 μM, 5 days chronic treatment): 5%
IC50 ([5]; MTT, Figure 3C and text, read-out: IC50 (μM), HCT 116): 0.94 µM
IC50 ([5]; MTT, supplementary CSV, read-out: IC50 (uM) HCT 116): 0.9 ± 0.6 µM
Cell viability, HCT 116 […] 2 days ([5]; MTT, 2 days): 59.6 ± 2.9%
Cell viability, HCT 116 […] 2 days [5, 9]: 59.1 ± 0.8%
Fold higher concentration needed to reduce nontumorigenic intestinal cell viability by 50% ([6]; IC50 HIEC6 versus IC50 HCT 116): 3.7 fold
Cell viability, HIEC6 0.5uM 2 days ([6]; MTT, 0.5 uM, 2 days): 92.5 ± 0.9%
Cell viability, HIEC6 0.5uM 5 days ([6]; MTT, 0.5 uM, 5 days): 84.1 ± 4.7%
Reduction in viability of healthy cells (HIEC6) ([6]; MTT, 5 μM, 2 days): 60%
Cell viability, HIEC6 5uM 2 days [6, 8]: 41.2 ± 1.5%
IC50 ([6]; MTT, Figure 3C and text, read-out: IC50 (μM), HIEC6): 3.47 µM
IC50 ([6]; MTT, supplementary CSV, read-out: IC50 (uM) HIEC6): 3.5 ± 0.6 µM
Cell viability, HIEC6 […] 2 days ([6]; MTT, 2 days): 97.8 ± 4.0%
Cell viability, HIEC6 […] 2 days [6, 9]: 98.8 ± 6.1%
Side effects (weight loss greater than 5% or abnormal postures) or deaths ([7]; acute and chronic treatment): No side effects (weight loss greater than 5% or abnormal postures) or deaths of the mice were observed
Hepatic toxicity (uric acid and GPT levels in plasma) [7, 10]: significantly lower
Renal toxicity (creatinine levels in plasma) [7, 10]: significantly lower

Source: publication PMC11056991, “Promising Anticancer Prodrugs Based on Pt(IV) Complexes with Bis-organosilane Ligands in Axial Positions” (Journal of Medicinal Chemistry, 2024)
